Assay results published in patent publication US20160090556A1, “PRODUCTS COMPRISING MALODOR REDUCTION MATERIALS” (The Procter & Gamble Company, priority 2014, published 2016).
Where two headings read alike, the source gives them in different places.

Assay: Liquid dish neat product liquid-air partition coefficient
Type: physicochemical
Details: for Comment Code: Log of liquid dish neat product liquid-air partition coefficient: code letters K, L
[1] = class code letter within Comment Code

Structure (SMILES)	Log of liquid dish neat product liquid-air partition coefficient (Comment Code K/L)	Comment Code: Log of liquid dish neat product liquid-air partition coefficient	Log of liquid dish neat product liquid-air partition coefficient (Comment Code K/L) [1]
C=C1CCCC(C)(C)C1C=C(C)C(C)=O (stereo not shown) [Material 913]	K (Log of liquid dish neat product liquid-air partition coefficient greater than or equal to −7)	–	–
C=C1CCCC(C)(C)C2C=C(C)CCC12 (stereo not shown) [Material 707]	K (Log of liquid dish neat product liquid-air partition coefficient greater than or equal to −7)	–	–
CC(O)CCC1C(C)CCCC1(C)C (stereo not shown) [Material 1052]	–	K (Log of liquid dish neat product liquid-air partition coefficient greater than or equal to −7)	–
CC(=O)OCCC1=CCC2CC1C2(C)C (stereo not shown) [Material 47]	–	–	K (Log of liquid dish neat product liquid-air partition coefficient greater than or equal to −7)
C=CC1(C)CCC(C(C)(C)O)CC1C(=C)C (stereo not shown) [Material 414]	–	–	K (Log of liquid dish neat product liquid-air partition coefficient greater than or equal to −7)
C=C1CCCC(C)(C)C1C(=O)C=CC (stereo not shown) [Material 331]	–	–	K (Log of liquid dish neat product liquid-air partition coefficient greater than or equal to −7)
CCCCCCOC(=O)c1ccco1 [Material 275]	–	K (Log of liquid dish neat product liquid-air partition coefficient greater than or equal to −7)	–
C=C(C)[C@@H]1CCC2=CC(=O)C[C@@H](C)[C@]2(C)C1 [Material 48]	–	K (Log of liquid dish neat product liquid-air partition coefficient greater than or equal to −7)	K (Log of liquid dish neat product liquid-air partition coefficient greater than or equal to −7)
CC(C)C(=O)OCC=Cc1ccccc1 [Material 550]	–	–	K (Log of liquid dish neat product liquid-air partition coefficient greater than or equal to −7)
CC(O)CCC1CCCCC1 (stereo not shown) [Material 699]	–	K (Log of liquid dish neat product liquid-air partition coefficient greater than or equal to −7)	–
c1ccc(CCCc2ccccn2)cc1 [Material 497]	–	–	K (Log of liquid dish neat product liquid-air partition coefficient greater than or equal to −7)
c1ccc(CCOC2CCCCC2)cc1 [Material 953]	K (Log of liquid dish neat product liquid-air partition coefficient greater than or equal to −7)	–	–
CCCCCOC(=O)c1ccccc1 [Material 672]	–	K (Log of liquid dish neat product liquid-air partition coefficient greater than or equal to −7)	–
CC(C=O)Cc1ccc2c(c1)OCO2 (stereo not shown) [Material 288]	–	–	K (Log of liquid dish neat product liquid-air partition coefficient greater than or equal to −7)
CC1=CCC(C23CCCC(C)(C2)OC3)C1(C)C (stereo not shown) [Material 570]	K (Log of liquid dish neat product liquid-air partition coefficient greater than or equal to −7)	K (Log of liquid dish neat product liquid-air partition coefficient greater than or equal to −7)	–
CCC(=O)OC1CC2CCC1(C)C2(C)C (stereo not shown) [Material 228]	–	–	K (Log of liquid dish neat product liquid-air partition coefficient greater than or equal to −7)
CC(C)Cc1ccc2ccccc2n1 [Material 849]	K (Log of liquid dish neat product liquid-air partition coefficient greater than or equal to −7)	–	–
CC(C)(C)c1ccc(CCC=O)cc1 [Material 601]	K (Log of liquid dish neat product liquid-air partition coefficient greater than or equal to −7)	–	–
CC(=O)c1ccc2ccccc2c1 [Material 120]	–	–	K (Log of liquid dish neat product liquid-air partition coefficient greater than or equal to −7)
O=C1CCC=CCCCCCCCCCC1 [Material 371]	–	–	K (Log of liquid dish neat product liquid-air partition coefficient greater than or equal to −7)
CCOC(=O)OC1CCCCC1C(C)(C)C (stereo not shown) [Material 355]	–	K (Log of liquid dish neat product liquid-air partition coefficient greater than or equal to −7)	–
CCCC(=O)OCCc1ccccc1 [Material 831]	K (Log of liquid dish neat product liquid-air partition coefficient greater than or equal to −7)	–	–
C=CCCCCCCCCC#N [Material 352]	–	–	K (Log of liquid dish neat product liquid-air partition coefficient greater than or equal to −7)
CCCCCCCCCC(=O)O [Material 582]	K (Log of liquid dish neat product liquid-air partition coefficient greater than or equal to −7)	–	–
O=C1CCCCCCCCCC/C=C/CCO1 [Material 289]	–	–	K (Log of liquid dish neat product liquid-air partition coefficient greater than or equal to −7)

Structure (SMILES)	Log of liquid dish neat product liquid-air partition coefficient (Comment Code K/L)	Comment Code: Log of liquid dish neat product liquid-air partition coefficient	Log of liquid dish neat product liquid-air partition coefficient (Comment Code K/L) [1]
Cc1ccc(CC(C)C=O)cc1 (stereo not shown) [Material 742]	K (Log of liquid dish neat product liquid-air partition coefficient greater than or equal to −7)	–	–
CC(C)C1CCC(C(C)O)CC1 (stereo not shown) [Material 83]	–	–	K (Log of liquid dish neat product liquid-air partition coefficient greater than or equal to −7)
O=C1CCCC=CCCCCCCCCCC1 [Material 788]	K (Log of liquid dish neat product liquid-air partition coefficient greater than or equal to −7)	K (Log of liquid dish neat product liquid-air partition coefficient greater than or equal to −7)	–
C=CC(C)(O)CCC=C(C)C (stereo not shown) [Material 157]	–	K (Log of liquid dish neat product liquid-air partition coefficient greater than or equal to −7)	–
OCC=Cc1ccccc1 [Material 555]	–	–	K (Log of liquid dish neat product liquid-air partition coefficient greater than or equal to −7)
CC1=CCC(=C(C)C)CCC(C)=CCC1 [Material 295]	–	–	K (Log of liquid dish neat product liquid-air partition coefficient greater than or equal to −7)
CCCCCCCCCCO [Material 868]	K (Log of liquid dish neat product liquid-air partition coefficient greater than or equal to −7)	–	–
CC=Cc1ccc(OCC)c(O)c1 [Material 1112]	–	K (Log of liquid dish neat product liquid-air partition coefficient greater than or equal to −7)	–
CC(C)=CCCC1=CCC(C#N)CC1 (stereo not shown) [Material 660]	K (Log of liquid dish neat product liquid-air partition coefficient greater than or equal to −7)	–	–
Cc1ccc(C(C)C)cc1O [Material 575]	–	K (Log of liquid dish neat product liquid-air partition coefficient greater than or equal to −7)	–
CCNC(=O)C1CC(C)CCC1C(C)C (stereo not shown) [Material 57]	–	–	K (Log of liquid dish neat product liquid-air partition coefficient greater than or equal to −7)
CC1=CCC(CCC(C)C(C)O)C1(C)C (stereo not shown) [Material 1023]	K (Log of liquid dish neat product liquid-air partition coefficient greater than or equal to −7)	–	–
C=CCCCCCCCCO [Material 470]	–	–	K (Log of liquid dish neat product liquid-air partition coefficient greater than or equal to −7)
C=CCc1ccc2c(c1)OCO2 [Material 1021]	K (Log of liquid dish neat product liquid-air partition coefficient greater than or equal to −7)	–	–
COc1ccccc1-c1ccccc1 [Material 22]	–	–	K (Log of liquid dish neat product liquid-air partition coefficient greater than or equal to −7)
CC1CCC2(O)C(C)(C)C3CCC2(C)C1C3 (stereo not shown) [Material 933]	K (Log of liquid dish neat product liquid-air partition coefficient greater than or equal to −7)	K (Log of liquid dish neat product liquid-air partition coefficient greater than or equal to −7)	–
CC1(C)CCCC2=C1CC(C=O)CC2 (stereo not shown) [Material 486]	–	–	K (Log of liquid dish neat product liquid-air partition coefficient greater than or equal to −7)
CC(O)C(C)/C=C1\C[C@H]2C[C@@H]1[C@@H]1C=CC[C@H]21 (stereo partly shown) [Material 359]	–	K (Log of liquid dish neat product liquid-air partition coefficient greater than or equal to −7)	K (Log of liquid dish neat product liquid-air partition coefficient greater than or equal to −7)
COC(C)(C)CCCC(C)C=O (stereo not shown) [Material 125]	–	K (Log of liquid dish neat product liquid-air partition coefficient greater than or equal to −7)	–
CC1COCc2cc3c(cc21)C(C)(C)C(C)C3(C)C (stereo not shown) [Material 335]	–	K (Log of liquid dish neat product liquid-air partition coefficient greater than or equal to −7)	K (Log of liquid dish neat product liquid-air partition coefficient greater than or equal to −7)
OC1CCC2CCCCC2C1 (stereo not shown) [Material 474]	–	–	K (Log of liquid dish neat product liquid-air partition coefficient greater than or equal to −7)
C/C=C(\C)C(=O)OCC/C=C\CC [Material 536]	–	K (Log of liquid dish neat product liquid-air partition coefficient greater than or equal to −7)	–
CC12CCCC(C)(CC1)C2=NO [Material 921]	–	K (Log of liquid dish neat product liquid-air partition coefficient greater than or equal to −7)	–
c1ccc2c(c1)CC1COCOC21 (stereo not shown) [Material 247]	–	–	K (Log of liquid dish neat product liquid-air partition coefficient greater than or equal to −7)
